From publication PMC2813863, “In Vivo Evaluation of α7 Nicotinic Acetylcholine Receptor Agonists [^11C]A-582941 and [^11C]A-844606 in Mice and Conscious Monkeys” (PLoS ONE, 2010)
Several values for one entry are separate records, joined by “and”; a condition that tells them apart may be missing. Equal values may be shown once. Read-outs that look alike come from different tables or passages of the source.

Assays:
[1] = target: α7 nAChRs (Macaca mulatta, UniProt Q866A2); details: rhesus monkey, in vivo
α7 nAChRs (Macaca mulatta, UniProt Q866A2), sequence (Q866A2 23-502): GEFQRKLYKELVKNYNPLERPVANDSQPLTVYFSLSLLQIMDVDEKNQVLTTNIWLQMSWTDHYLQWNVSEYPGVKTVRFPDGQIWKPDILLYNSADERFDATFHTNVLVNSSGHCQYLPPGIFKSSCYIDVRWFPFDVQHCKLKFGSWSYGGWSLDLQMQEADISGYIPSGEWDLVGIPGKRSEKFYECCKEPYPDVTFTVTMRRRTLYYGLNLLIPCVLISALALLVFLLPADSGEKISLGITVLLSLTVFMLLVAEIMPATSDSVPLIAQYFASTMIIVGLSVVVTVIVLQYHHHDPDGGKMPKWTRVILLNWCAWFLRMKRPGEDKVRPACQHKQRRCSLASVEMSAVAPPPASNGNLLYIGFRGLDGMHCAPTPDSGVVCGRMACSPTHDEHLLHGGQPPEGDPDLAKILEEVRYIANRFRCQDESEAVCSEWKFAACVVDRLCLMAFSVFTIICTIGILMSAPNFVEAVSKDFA
From the text: Four young-adult male rhesus monkeys (Macaca mulatta) weighing from 4 to 6 kg were used for PET measurements. The monkeys were trained for the protocol as described previously. The magnetic resonance images (MRI) of all monkeys were obtained with a Toshiba MRT-50A/II (0.5T) under anesthesia with pentobarbital. The stereotactic coordinates of PET and MRI were adjusted based on the orbitomeatal (OM) line with monkeys secured in a specially designed head holder. At least 1 month before the PET study, an acrylic plate, with which the monkey was fixed to the monkey chair, was attached to the head under pentobarbital anesthesia as described previously.
PET data were collected on a high-resolution PET scanner (SHR-7700; Hamamatsu Photonics K.K., Hamamatsu, Japan). The camera consists of 16 detector rings and acquires 20 slices at a center-to-center interval of 3.6 mm with a transaxial resolution of 2.6 mm full width at half maximum. After an overnight fast, the monkey was fixed to the monkey chair with stereotactic coordinates aligned parallel to the OM line. A cannula was implanted in the posterior tibial vein, and [^11C]A-582941 or [^11C]A-844606 (1152–1336 MBq/26.8–63.1 nmol) was injected into the monkey through the venous cannula. PET images were acquired over 91 min (10 sec ×6 frames, 30 sec ×6 frames, 1 min ×12 frames, and 3 min ×25 frames). PET scans were reconstructed using a filtered backprojection method in a 100×100 matrix, with a voxel size of 1.2 mm ×1.2 mm ×3.6 mm. Summed image of late phase (from 70 to 91 min post-injection) was calculated as a static SUV (activity/ml tissue)/(injected activity/g body weight) image. Each MRI was coregistered to an early (from 0 to 20 min) summed image using normalized mutual information, and ROIs were placed on the summed image with reference to the coregistered MRI. Three monkeys underwent [^11C]A-582941 scan morning, and then two of the three monkeys underwent [^11C]A-844606 afternoon (baseline). Within 6 months the last one of the three monkeys underwent two [^11C]A-844606 scans in the baseline (morning) and blocking (afternoon) conditions 30 min after injection of SSR180711 (5.0 mg/kg, i.v.), and the fourth monkey underwent two [^11C]A-582941 scans in the baseline and blocking conditions in the same way.
For the semi-quantitative analysis of PET data, arterial samples were obtained every 8 sec from injection to 64 sec, and then again at 1.5, 2.5, 4, 6, 10, 20, 30, 45, 60, and 90 min after each tracer injection. Blood samples were centrifuged to separate the plasma, weighed, and subjected to radioactivity measurement. For metabolite analysis, methanol was added to some plasma samples, the resulting solutions were centrifuged, and the supernatants were developed with TLC plates (AL SIL G/UV; Whatman, Kent, UK) using a mobile phase of dichloromethane/diethyl ether/ethanol/triethylamine (20/20/2/2, v/v/v/v). At each sampling time point, the ratio of radioactivity in the unmetabolized fraction to that in the total plasma (metabolite plus unmetabolite) was determined using a phosphoimaging plate (BAS-1500 MAC; Fuji Film Co., Tokyo, Japan). The pTACs corrected for metabolite were obtained. The tTACs in each region of interest (ROI) in the brain were calculated as the %ID/ml or as a standardized uptake value (SUV), (activity/ml tissue)/(injected activity/g body weight). Using the tTACs and the metabolite-corrected pTAC, the V T for each tracer was evaluated by Logan graphical analysis.

[2] = mice
Method: Each tracer (180 MBq/3.0–13.4 nmol) was intravenously injected into mice, and 15 and 30 min later the animals were killed by cervical dislocation (n = 3). Blood was removed by heart puncture using a heparinized syringe, and the brain was removed. The blood was centrifuged at 7,000×g for 1 min at 4°C to obtain plasma, which was denatured with 5 volume of CH3CN. The mixture was centrifuged under the same conditions, and the precipitate was re-suspended in 0.5 ml of CH3CN, followed by centrifugation. This procedure was repeated three times. The cerebral cortex (approximately 200 mg) was homogenized in 1.0 ml of 50% CH3CN. The homogenate was then treated as described above. The combined supernatant was diluted with 2 volumes of water and then analyzed by HPLC with a radioactivity detector (FLO-ONE 150TR; Packard Instrument, Meriden, CT). A Radial-Pak C18 column equipped with an RCM 8×10 module (8 mm ×100 mm; Waters, Milford, MA) was used with a mixture of CH3CN/H2O/triethyl amine (40/60/0.1 for [^11C]A-582941 and 70/30/0.1 for [^11C]A-844606, v/v/v) as the mobile phase at a flow rate of 2 ml/min. The elution profile was monitored with a radioactivity detector. The retention times of [^11C]A-582941 and [^11C]A-844606 were 6.4 and 8.8 min, respectively. The recovery in the eluate of the injected radioactivity was essentially quantitative.

[3] = target: α7 nAChRs (Mus musculus, UniProt P49582); details: in vivo
α7 nAChRs (Mus musculus, UniProt P49582), sequence (P49582 23-502): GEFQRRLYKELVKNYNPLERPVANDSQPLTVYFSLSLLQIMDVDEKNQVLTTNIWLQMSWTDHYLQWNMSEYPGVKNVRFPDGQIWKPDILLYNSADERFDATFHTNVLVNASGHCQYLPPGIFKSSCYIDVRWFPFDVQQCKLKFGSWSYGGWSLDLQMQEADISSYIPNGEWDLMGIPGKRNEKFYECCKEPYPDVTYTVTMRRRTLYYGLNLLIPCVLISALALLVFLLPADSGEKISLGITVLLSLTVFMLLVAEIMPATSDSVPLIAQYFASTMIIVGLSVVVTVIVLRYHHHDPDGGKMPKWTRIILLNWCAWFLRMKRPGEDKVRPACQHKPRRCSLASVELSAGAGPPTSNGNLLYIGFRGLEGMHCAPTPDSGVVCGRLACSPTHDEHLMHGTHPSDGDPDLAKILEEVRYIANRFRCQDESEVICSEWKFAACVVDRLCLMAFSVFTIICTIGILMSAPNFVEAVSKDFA
Method: In the other group of mice, a blocking experiment to determine the α7 nAChRs-specific regional brain uptake of the tracers was carried out. Each tracer (2 MBq/0.055–0.096 nmol) was co-injected with each of the following blockers into mice, and 15 ([^11C]A-582941) or 30 ([^11C]A-844606) min later the mice were killed (n = 5) and the tissue uptake of ^11C was expressed as the %ID/g. […] Each blocker was dissolved in 1N HCl to 40 mg/ml and diluted up to 0.4 mg/ml with saline. The co-injected dose was 1 mg/kg. In the control mice the same amount of 0.01 N HCl in saline was co-injected.

[11CH3]N1CC2CN(c3ccc(-c4ccccc4)nn3)CC2C1 (centres unmarked) [[^11C]A-582941, 2-[^11C]Methyl-5-[6-phenylpyridazine-3-yl]octahydropyrrolo[3,4-c]pyrrole]
V T Baseline, Cerebellum ([1]; male): 25.4 mL/g
V T Baseline, Frontal cortex ([1]; male): 34.5 mL/g
V T Baseline, Hippocampus ([1]; male): 31.6 mL/g
V T Baseline, Thalamus ([1]; male): 34.0 mL/g
V T SSR180711, Cerebellum ([1]; male): 17.3 mL/g
V T SSR180711, Frontal cortex ([1]; male): 23.0 mL/g
V T SSR180711, Hippocampus ([1]; male): 20.4 mL/g
V T SSR180711, Thalamus ([1]; male): 23.6 mL/g
V T, cerebellum (mean ± SD) ([1]; male): 23.0±3.4
V T, cerebellum (range) ([1]; male): 18.0–25.4
V T, frontal cortex (mean ± SD) ([1]; male): 29.2±4.7
V T, frontal cortex (range) ([1]; male): 23.2–34.5
V T, hippocampus (mean ± SD) ([1]; male): 28.0±3.8
V T, hippocampus (range) ([1]; male): 22.8–31.6
V T, thalamus (mean ± SD) ([1]; male): 30.4±4.1
V T, thalamus (range) ([1]; male): 24.6–34.0
time of peak radioactivity in the four brain regions (thalamus, frontal cortex, hippocampus, cerebellum) ([1]; male): 10 min
% decrease of V T, Cerebellum [1]: 32.0%
% decrease of V T, Frontal cortex [1]: 33.4%
% decrease of V T, Hippocampus [1]: 35.5%
% decrease of V T, Thalamus [1]: 30.5%
decrease of V T by pretreatment with SSR180711 [1]: ~30%
percentage of the unchanged form in the brain ([2]; 15 min after injection): 95.4±1.9%
percentage of the unchanged form in the plasma ([2]; 15 min after injection): 40.5±7.1%
percentage of the unchanged form in the brain ([2]; 30 min after injection): 97.4±0.8%
percentage of the unchanged form in the plasma ([2]; 30 min after injection): 26.8±6.6% and 26.8%
% Injected dose/g tissue, Blood [3]: 0.88±0.10 % Injected dose/g tissue
% Injected dose/g tissue, Cerebellum [3]: 3.71±0.19 % Injected dose/g tissue
% Injected dose/g tissue, Cerebral cortex [3]: 4.59±0.25 % Injected dose/g tissue
% Injected dose/g tissue, Hippocampus [3]: 4.05±0.52 % Injected dose/g tissue
% Injected dose/g tissue, Hypothalamus [3]: 3.51±0.60 % Injected dose/g tissue
% Injected dose/g tissue, Medulla oblongata [3]: 4.23±0.08 % Injected dose/g tissue
% Injected dose/g tissue, Midbrain [3]: 4.09±0.52 % Injected dose/g tissue
% Injected dose/g tissue, Striatum [3]: 4.03±0.45 % Injected dose/g tissue
% Injected dose/g tissue, Whole brain [3]: 4.23±0.23 % Injected dose/g tissue
